These are literature values, as cited in patent US7157490B2, “Phenylalanine derivatives as dipeptidyl peptidase inhibitors for the treatment or prevention of diabetes” (Merck & Co., Inc., priority 2002, dated 2007).

Data set [1] relates to rats. Particulars: doubled from day 7.
Data set [2] deals with mouse model of cyclophosphamide-induced neutropenia.
Data set [3] addresses T1, DP-IV (Homo sapiens, UniProt P27487).
T1 construct: GRF is rapidly degraded in plasma to GRF[3–44]; from tissue

T1 sequence (P27487 39-766 limits assumed): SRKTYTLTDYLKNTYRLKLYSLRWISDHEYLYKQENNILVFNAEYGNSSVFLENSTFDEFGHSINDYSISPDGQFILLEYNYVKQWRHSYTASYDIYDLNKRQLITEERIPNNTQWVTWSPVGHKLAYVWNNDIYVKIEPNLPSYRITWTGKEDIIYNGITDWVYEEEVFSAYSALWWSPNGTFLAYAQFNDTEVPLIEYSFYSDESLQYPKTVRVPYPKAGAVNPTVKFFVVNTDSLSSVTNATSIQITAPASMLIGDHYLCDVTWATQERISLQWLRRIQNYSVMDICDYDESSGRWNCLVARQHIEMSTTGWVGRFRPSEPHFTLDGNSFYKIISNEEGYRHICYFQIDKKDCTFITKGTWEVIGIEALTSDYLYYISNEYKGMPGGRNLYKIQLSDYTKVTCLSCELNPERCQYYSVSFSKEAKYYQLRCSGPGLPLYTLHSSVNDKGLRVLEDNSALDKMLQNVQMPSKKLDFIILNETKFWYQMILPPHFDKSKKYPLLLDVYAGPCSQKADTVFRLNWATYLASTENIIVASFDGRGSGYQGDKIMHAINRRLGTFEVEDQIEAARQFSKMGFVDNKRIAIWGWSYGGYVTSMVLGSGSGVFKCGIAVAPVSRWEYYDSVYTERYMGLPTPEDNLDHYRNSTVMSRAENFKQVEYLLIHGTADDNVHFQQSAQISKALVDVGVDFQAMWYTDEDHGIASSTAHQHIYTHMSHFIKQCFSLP

Turning to `CC(C)N1CCC(c2ccccc2)(c2ccccc2)CC1` [Prodipine, Pro-Pro-diphenyl-phosphonate], in data set [1], the cardiac allograft survival was 14 day.

As for `CC(C)[C@H](N)C(=O)N1CCC[C@H]1B(O)O` [Val-Boro-Pro], the hematopoiesis entry in data set [2] is “stimulated hematopoiesis”.

For the compound diprotin A, the “degradation of GRF in plasma to GRF[3–44]” value in data set [3] is reported as “prevented”.
